According to ChEMBL document CHEMBL1201862, “PubChem BioAssay data set” (2004):
Calls of active or inactive are those of the source.

Tests used:
[1] = target: Long-chain-fatty-acid--AMP ligase FadD28 (Mycobacterium tuberculosis, UniProt P9WQ59); test: Fluorescence polarization aasay to screen for inhibitors that compete for the binding of FadD28 to a bisubstrate Measured in Biochemical System Using Plate Reader - 2147-01_Inhibitor_Dose_CherryPick_Activity.; format: functional, Mycobacterium tuberculosis H37Rv
[2] = HEK293T cytotoxicity, dose response, cytotoxicity control for miR-122 modulator project, cell-based, activator set, cherry-pick (AID 720690); format: functional;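 further: HEK293T human cells scored for general mammalian cytotoxicity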
[3] = LMP1-driven NF-kB reporter inhibition, dose response, cell-based, luciferase reporter, luminescence, dry powder, set 2 (AID 624376); format: functional
[4] = YAP1 pathway inhibition via CTGF transcript levels, dose response, cell-based, DLD1 colon cancer, RT-qPCR, cherry-pick (AID 1053122); format: functional; conditions: Cancer cell lines
[5] = HEK293T cytotoxicity, dose response, cytotoxicity control for miR-122 modulator project, cell-based, inhibitor set, cherry-pick, set 2 (AID 720697); format: functional
[6] = target: Endoplasmic reticulum aminopeptidase 1 (Homo sapiens, UniProt Q9NZ08); test: ERAP1 aminopeptidase inhibitors, dose response, biochemical, cherry-pick, set 2, plate reader (AID 743314)
[7] = T. cruzi growth inhibition in host cells, dose response, cell-based, plate reader, dry powder, set 2 (AID 652275); format: functional
[8] = NIH/3T3 fibroblast cytotoxicity, dose response, cytotoxicity control, cell-based, plate reader, dry powder, set 2 (AID 652280); format: functional; conditions: NIH3T3
[9] = target: T1, Low molecular weight phosphotyrosine protein phosphatase (Homo sapiens, UniProt P24666); format: functional; conditions: read-out: IC50_Mean
T1 sequence (P24666 whole entry): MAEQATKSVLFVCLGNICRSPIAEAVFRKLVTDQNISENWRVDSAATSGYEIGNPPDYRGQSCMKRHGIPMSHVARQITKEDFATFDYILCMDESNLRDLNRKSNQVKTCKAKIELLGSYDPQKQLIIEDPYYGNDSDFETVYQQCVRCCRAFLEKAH

[10] = target: T1, Low molecular weight phosphotyrosine protein phosphatase; format: functional; conditions: read-out: IC50_Mean; remark: listed apart in the source
[11] = LGR2 antagonists, dose response, cell-based, HEK293, CRE-luciferase reporter, cherry pick, set 2 (AID 743343); format: functional;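 further: transfected cells were stimulated with diluted bursicon conditioned medium after compound addition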
[12] = A549 cell cytotoxicity, dose response, cytotoxicity control, plate reader, cherry-pick, antagonist series (AID 743412); format: functional, cell-based
[13] = MC4R antagonists, dose response, counter-screen for LGR2 antagonist project, cell-based, plate reader, cherry pick (AID 743444); format: functional;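 further: transfected HEK 293 cells stimulated with alpha-MSH peptide; potency of inhibitors of the alpha-MSH evoked signal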
[14] = HepG2 cell cytotoxicity, dose response, cytotoxicity control, plate reader, cherry-pick, antagonist series (AID 743416); format: functional, cell-based

Chain of Long-chain-fatty-acid--AMP ligase FadD28 (P9WQ59 whole entry): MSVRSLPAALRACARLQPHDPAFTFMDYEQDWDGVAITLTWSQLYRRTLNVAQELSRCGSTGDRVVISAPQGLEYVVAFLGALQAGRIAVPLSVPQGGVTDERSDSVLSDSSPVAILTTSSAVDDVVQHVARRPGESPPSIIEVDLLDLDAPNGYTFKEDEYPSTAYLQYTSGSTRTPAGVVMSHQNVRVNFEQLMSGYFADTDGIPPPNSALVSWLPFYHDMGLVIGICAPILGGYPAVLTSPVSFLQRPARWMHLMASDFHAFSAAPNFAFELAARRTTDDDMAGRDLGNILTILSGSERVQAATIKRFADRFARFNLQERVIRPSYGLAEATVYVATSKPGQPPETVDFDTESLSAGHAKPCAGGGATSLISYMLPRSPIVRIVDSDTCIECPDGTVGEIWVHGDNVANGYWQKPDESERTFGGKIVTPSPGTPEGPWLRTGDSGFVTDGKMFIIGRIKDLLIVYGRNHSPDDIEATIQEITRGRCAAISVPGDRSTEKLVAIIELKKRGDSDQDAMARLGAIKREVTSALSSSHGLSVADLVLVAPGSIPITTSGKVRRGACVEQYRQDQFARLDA
Chain of Endoplasmic reticulum aminopeptidase 1 (Q9NZ08 whole entry): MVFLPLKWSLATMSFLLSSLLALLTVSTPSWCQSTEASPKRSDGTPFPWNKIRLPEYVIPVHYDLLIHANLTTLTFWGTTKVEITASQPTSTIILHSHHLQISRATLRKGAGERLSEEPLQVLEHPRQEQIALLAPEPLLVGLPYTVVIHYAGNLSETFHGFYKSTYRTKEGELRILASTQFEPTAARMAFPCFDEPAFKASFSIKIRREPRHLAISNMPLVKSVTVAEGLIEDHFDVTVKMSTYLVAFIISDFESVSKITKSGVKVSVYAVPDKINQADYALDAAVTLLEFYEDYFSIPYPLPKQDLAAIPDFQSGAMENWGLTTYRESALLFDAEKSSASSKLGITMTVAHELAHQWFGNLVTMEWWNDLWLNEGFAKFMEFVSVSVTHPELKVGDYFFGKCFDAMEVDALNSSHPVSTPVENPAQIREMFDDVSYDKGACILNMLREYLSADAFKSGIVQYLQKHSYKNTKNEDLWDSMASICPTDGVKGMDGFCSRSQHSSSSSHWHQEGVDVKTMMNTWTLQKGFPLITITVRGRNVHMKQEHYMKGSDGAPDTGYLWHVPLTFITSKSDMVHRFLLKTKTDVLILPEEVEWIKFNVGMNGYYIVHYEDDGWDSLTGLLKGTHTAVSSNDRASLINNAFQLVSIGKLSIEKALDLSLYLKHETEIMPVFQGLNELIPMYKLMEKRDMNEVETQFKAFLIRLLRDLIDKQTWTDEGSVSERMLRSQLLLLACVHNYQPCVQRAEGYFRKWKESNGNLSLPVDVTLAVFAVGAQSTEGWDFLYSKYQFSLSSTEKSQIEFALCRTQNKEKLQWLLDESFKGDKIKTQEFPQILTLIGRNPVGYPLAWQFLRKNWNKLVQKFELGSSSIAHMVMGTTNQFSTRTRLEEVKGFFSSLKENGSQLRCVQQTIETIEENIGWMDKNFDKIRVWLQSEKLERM

With `O=C(NCCSCc1ccc(Cl)cc1Cl)c1ccc(CN2CCOCC2)cc1` as the compound, how does the AC50 [1] read?
The AC50 was 15.7 µM (active).

For `CCOC(=O)c1ccc(NC(=S)N(CCN(C)C)Cc2cccs2)cc1`, which AC50 [1] is on record?
The AC50 was > 100 µM (inactive).

For `COc1ccc(NC(=O)N(C)C[C@@H]2Oc3cc(C#CCC(C)C)ccc3S(=O)(=O)N([C@@H](C)CO)C[C@@H]2C)cc1`, which AC50 [2] is on record?
Its AC50 is 26.8 µM (active).

And the AbsAC35 [3]?
The AbsAC35 was 43.42 µM.

With `C[C@@H]1CN([C@H](C)CO)C(=O)c2ccccc2-c2ccccc2CO[C@@H]1CN(C)Cc1cccc2c1OCCCO2` as the compound, how does the AC50 [4] read?
The AC50 was 12.3 µM (active).

With `C[C@@H]1CN([C@@H](C)CO)C(=O)Cc2cc(NS(=O)(=O)c3ccc(Cl)cc3)ccc2O[C@H]1CN(C)Cc1ccc(C(F)(F)F)cc1` as the compound, how does the AC50 [2] read?
Its AC50 is 33.8 µM (active).

And the AC50 [5]?
Its AC50 is < 0.195 µM (active).

With `O=C(NCc1ccccn1)[C@@H]1[C@@H](CO)[C@@H]2Cn3c(ccc(/C=C/c4ccccc4)c3=O)[C@H]1N2CC1CC1` as the compound, how does the AC50 [6] read?
The AC50 was 7.58 µM (active).

Which AC50 [7] does the source give for `OC[C@H]1[C@H](c2ccc(-c3cccc(F)c3)cc2)[C@@H]2CN(CCC(F)(F)F)CCCCN12` here?
The AC50 was 0.53 µM (active).

What about the AC50 [8] of the same compound?
The AC50 was 3.34 µM (active).

What does the source list for `CC(/C=N/NC(=O)c1ccc(Br)cc1)=C\c1ccccc1`?
IC50 [9]: 28.5 µM (inactive); IC50 [10]: 17.2 µM (active)

What does the source list for `COc1ccc2oc(-c3ccccc3)cc(=O)c2c1` [6-METHOXYFLAVONE]?
AC50 [11]: 5.46 µM (active); AC50 [12]: > 52 µM (inactive); AC50 [13]: 6.5 µM (active); AC50 [14]: > 52 µM (inactive)
